Measurements as given in ChEMBL document CHEMBL4806964, “Heterocyclic compound” (2019).

Experiments:
[1] = target: T1, CDK12/Cyclin K (Homo sapiens) (UniProt O75909+Q9NYV4); assay: Inhibition of BODIPY-FL-labeled AT-7519 binding to human His-tagged CDK12/CycK assessed as BODIPY-FL-labeled AT-7519 binding by measuring fluorescence intensity at 1 uM incubated for 120 mins in presence of 3 uM BODIPY-FL-labeled AT-7519 by TR-FRET assay relative to control; format: protein-complex assay
[2] = target: T1, CDK12/Cyclin K (Homo sapiens); assay: Inhibition of BODIPY-FL-labeled AT-7519 binding to human His-tagged CDK12/CycK assessed as BODIPY-FL-labeled AT-7519 binding by measuring fluorescence intensity at 1 uM incubated for 120 mins in presence of 30 uM BODIPY-FL-labeled AT-7519 by TR-FRET assay relative to control; format: protein-complex assay
[3] = tested on: A2780; assay: Antiproliferative activity against human A2780 cells at 1 uM by CellTiter-Glo reagent assay relative to control; format: functional
[4] = target: T1, CDK12/Cyclin K (Homo sapiens); assay: Inhibition of human His-tagged CDK12/CycK using ULight-labeled eIF4E-binding protein 1 substrate at 1 uM incubated for 60 mins by fluorescence based assay relative to control; format: protein-complex assay
[5] = target: T1, CDK12/Cyclin K (Homo sapiens); assay: Inhibition of human CDK12/CycK in human A2780 cells assessed as intracellular phosphorylated CTD Ser2 art 1 uM by In-Cell Western method relative to control; format: cell-based

T1 sequence (O75909 whole entry, looked up): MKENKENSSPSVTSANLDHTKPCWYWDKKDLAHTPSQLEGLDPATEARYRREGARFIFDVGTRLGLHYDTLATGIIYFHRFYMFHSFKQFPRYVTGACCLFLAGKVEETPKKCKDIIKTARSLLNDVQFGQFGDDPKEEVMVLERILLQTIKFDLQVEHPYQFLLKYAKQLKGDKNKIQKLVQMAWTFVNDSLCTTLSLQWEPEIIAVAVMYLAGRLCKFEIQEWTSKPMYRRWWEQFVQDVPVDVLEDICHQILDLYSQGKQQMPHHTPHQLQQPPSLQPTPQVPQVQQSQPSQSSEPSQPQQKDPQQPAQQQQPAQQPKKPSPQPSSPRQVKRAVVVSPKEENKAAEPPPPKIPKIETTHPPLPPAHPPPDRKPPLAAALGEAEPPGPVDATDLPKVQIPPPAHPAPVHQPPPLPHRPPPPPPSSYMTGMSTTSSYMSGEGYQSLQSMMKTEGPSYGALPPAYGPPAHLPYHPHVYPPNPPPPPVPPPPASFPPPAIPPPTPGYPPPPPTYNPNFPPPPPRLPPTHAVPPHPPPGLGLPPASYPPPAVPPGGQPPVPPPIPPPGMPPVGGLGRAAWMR
T1 sequence (Q9NYV4 whole entry, looked up): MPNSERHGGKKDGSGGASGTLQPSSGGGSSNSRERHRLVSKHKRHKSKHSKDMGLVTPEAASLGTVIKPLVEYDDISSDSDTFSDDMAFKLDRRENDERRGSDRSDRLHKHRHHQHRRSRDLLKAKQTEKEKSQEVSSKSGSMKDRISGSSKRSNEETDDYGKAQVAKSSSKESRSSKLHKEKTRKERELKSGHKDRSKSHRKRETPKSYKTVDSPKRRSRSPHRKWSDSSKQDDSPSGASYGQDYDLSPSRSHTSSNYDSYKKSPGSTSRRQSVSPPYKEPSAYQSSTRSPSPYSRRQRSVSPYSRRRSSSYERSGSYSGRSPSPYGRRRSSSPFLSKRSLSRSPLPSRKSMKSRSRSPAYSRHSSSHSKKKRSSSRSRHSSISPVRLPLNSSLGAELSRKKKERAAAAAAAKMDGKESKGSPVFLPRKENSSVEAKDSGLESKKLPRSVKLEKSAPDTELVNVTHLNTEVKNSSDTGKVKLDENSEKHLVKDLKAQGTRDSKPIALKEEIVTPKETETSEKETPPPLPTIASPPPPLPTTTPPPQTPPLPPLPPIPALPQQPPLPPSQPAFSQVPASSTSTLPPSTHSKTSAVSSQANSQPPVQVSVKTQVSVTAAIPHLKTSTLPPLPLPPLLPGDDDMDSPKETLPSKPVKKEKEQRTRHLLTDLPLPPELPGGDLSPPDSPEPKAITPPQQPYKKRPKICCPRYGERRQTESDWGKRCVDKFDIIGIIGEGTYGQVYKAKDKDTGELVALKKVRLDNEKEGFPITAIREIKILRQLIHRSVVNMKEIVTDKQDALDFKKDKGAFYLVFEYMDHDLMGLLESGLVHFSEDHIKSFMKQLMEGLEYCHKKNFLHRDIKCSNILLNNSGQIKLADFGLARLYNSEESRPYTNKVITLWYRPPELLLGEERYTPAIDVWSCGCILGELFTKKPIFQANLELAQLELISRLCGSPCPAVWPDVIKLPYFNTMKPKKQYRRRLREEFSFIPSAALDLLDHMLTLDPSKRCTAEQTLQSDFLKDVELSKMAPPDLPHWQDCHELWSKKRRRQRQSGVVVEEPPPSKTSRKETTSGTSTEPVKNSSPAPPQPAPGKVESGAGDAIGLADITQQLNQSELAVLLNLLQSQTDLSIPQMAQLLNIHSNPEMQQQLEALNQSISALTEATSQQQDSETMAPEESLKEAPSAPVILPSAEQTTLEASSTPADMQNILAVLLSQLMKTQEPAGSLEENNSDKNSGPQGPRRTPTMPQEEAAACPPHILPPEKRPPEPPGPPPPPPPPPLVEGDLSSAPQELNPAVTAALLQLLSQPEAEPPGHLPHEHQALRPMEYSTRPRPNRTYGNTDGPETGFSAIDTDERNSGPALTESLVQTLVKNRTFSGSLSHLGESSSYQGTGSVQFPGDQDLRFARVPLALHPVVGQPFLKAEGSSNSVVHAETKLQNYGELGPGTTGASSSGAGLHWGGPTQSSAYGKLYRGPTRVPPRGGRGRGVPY

| inhibition [1] [%] | inhibition [2] [%] | Structure (SMILES) | also measured |
| --- | --- | --- | --- |
| 104 |  | COc1ncc(-c2ccc(N(C(=O)COc3ccccc3)[C@H]3CC[C@H](Nc4ncc(C#N)c(N5CCCC(O)CC5)n4)CC3)nc2)cn1 (some centres undefined) |  |
| 95 |  | COc1ncc(-c2cnc(N(C(=O)NCc3ccccc3)[C@H]3CC[C@H](Nc4ncc(C#N)c(N5CC(C)(O)C5)n4)CC3)nc2)cn1 | inhibition [5]: 54%; inhibition at 1 µM [3]: 94%; inhibition [4]: 105% |
| 98 |  | COc1ncc(-c2ccc(N(C(=O)COc3ccccc3)[C@H]3CC[C@H](Nc4ncc(C#N)c(OC5COC5)n4)CC3)nc2)cn1 |  |
| 96 |  | Cn1cc(-c2ccc(N(C(=O)NCc3ccccc3)[C@H]3CC[C@H](Nc4ncc(C#N)c(-c5[nH]ncc5O)n4)CC3)nc2)cn1 |  |

Further lines, the compound ahead of its results:

| Structure (SMILES) | inhibition [1] [%] | inhibition [2] [%] | also measured |
| --- | --- | --- | --- |
| COc1ncc(-c2cnc(N(C(=O)COc3ccccc3)[C@H]3CC[C@H](Nc4ncc(C(F)(F)F)c(N5CC(C)(O)C5)n4)CC3)cn2)cn1 | 100 |  |  |
| COCCOC(=O)N(c1cnc(-c2cnc(OC)nc2)cn1)[C@H]1CC[C@H](Nc2ncc(C(F)(F)F)c(-c3cncc(S(N)(=O)=O)c3)n2)CC1 |  | 91 |  |
| COc1ncc(-c2cnc(N(C(=O)NCc3ccccc3)[C@H]3CC[C@H](Nc4ncc(C(F)(F)F)c(N5CC(C)(O)C5)n4)CC3)cn2)cn1 | 103 |  |  |
| CCCC(=O)N(c1cnc(-c2cnn(C)c2)cn1)[C@H]1CC[C@H](Nc2ncc(C(F)(F)F)c(-c3cncc(S(N)(=O)=O)c3)n2)CC1 |  | 99 |  |
| COc1ncc(-c2cnc(N(C(=O)NCc3ccccn3)[C@H]3CC[C@H](Nc4ncc(C(F)(F)F)c(OC5COC5)n4)CC3)nc2)cn1 | 103 |  | inhibition at 1 µM [3]: 98%; inhibition [4]: 99% |
| COc1ncc(-c2cnc(N(C(=O)NCc3ccccc3)[C@H]3CC[C@H](Nc4ncc(C#N)c(N5CCCC(O)CC5)n4)CC3)nc2)cn1 (some centres undefined) |  |  | inhibition [5]: 48% |
| COCCNC(=O)N(c1cnc(-c2cnc(OC)nc2)cn1)[C@H]1CC[C@H](Nc2ncc(C(F)(F)F)c(-c3ccn(C(F)F)n3)n2)CC1 |  | 90 |  |
| COCC(=O)N(c1cnc(-c2cnn(C)c2)cn1)[C@H]1CC[C@H](Nc2ncc(C(F)(F)F)c(-c3cncc(S(N)(=O)=O)c3)n2)CC1 |  | 95 |  |
| COc1ncc(-c2cnc(N(C(=O)OCCN3CCOCC3)[C@H]3CC[C@H](Nc4ncc(C(F)(F)F)c(-c5cncc(S(N)(=O)=O)c5)n4)CC3)cn2)cn1 |  | 99 |  |
| COc1ncc(-c2cnc(N(C(=O)NCc3ccccc3)[C@H]3CC[C@H](Nc4ncc(C(F)(F)F)c(NC5COC5)n4)CC3)nc2)cn1 | 96 |  |  |
